Series [1] has as its target T1, OXE receptor (Homo sapiens, UniProt Q8TDS5).
T1 construct: Human granulocytes (≥95% neutrophils) are prepared from whole blood; endogenous in cells; host or cells: human granulocytes (≥95% neutrophils) from whole blood
The experiment in a line: Calcium mobilization in human granulocytes (inhibition of 5-oxo-ETE-induced calcium mobilization). The class given is cell-based. The procedure:
Evaluation of Antagonist Activity: Calcium Mobilization in Human Granulocytes
Human granulocytes (≥95% neutrophils) are prepared from whole blood using Dextran 500 to remove red blood cells, followed by centrifugation over Ficoll-Paque to remove mononuclear cells and hypotonic lysis of any remaining red blood cells. After centrifugation the granulocytes are suspended in Ca^++/Mg^++-free phosphate-buffered saline (PBS^−). Granulocytes (10^7 cells/ml) are incubated with the acetoxymethyl ester of indo-1 (1 μM) for 30 min, followed by washing twice with PBS^− and resuspension in the same medium to obtain a final cell concentration of 3.22×10^6 cells/ml. Five minutes prior to commencing data acquisition, Ca^++ and Mg^++ are added to give final concentrations of 1.8 and 1 mM, respectively. Calcium measurements are performed at 37° C. using a spectrofluorometer equipped with a temperature-controlled cuvette holder and a magnetic stirrer. The excitation and emission wavelengths are 331 nm and 410 nm, respectively. Following stabilization of the baseline, fluorescence is measured for 1 min, prior to the addition of either vehicle or various concentrations of a potential 5-oxo-ETE antagonist. Two min later, 5-oxo-ETE (10 nM) is added, followed 1 min later by digitonin (final concentration 0.1%). Data acquisition is terminated after a further 0.5 min. Fmax is determined from fluorescence measurements after the addition of digitonin, whereas Fmin is determined after determination of autofluorescence as described in the literature. A dissociation constant of 250 nM for the indo-1/Ca^++ complex is used to calculate [Ca^++]i. The % inhibition of 5-oxo-ETE-induced calcium mobilization by the antagonist is calculated as follows: Inhibition (%)=(1−(Caant/Ca^++veh))×100 where Caant is the increase in cytosolic calcium levels induced by 5-oxo-ETE (10 nM) following the addition of a potential antagonist, whereas Caveh is the response induced by 5-oxo-ETE following addition of vehicle alone.
Background: Calcium assays in cells follow changes in intracellular calcium, usually with a dye or a luminescent sensor.

Series [2] is described as follows: Antagonist concentrations in blood (plasma) following oral administration. It is filed as in vivo. The settings on record: cynomolgus monkeys. How it is done: Measurement of Antagonist Concentrations in Blood Following Oral Administration
Antagonists dissolved in ethanol (5 to 75 mg/ml) and added to 20 mM NaHCO3 pH 8.0. The resulting suspension (7 to 13 ml containing 10% ethanol) was administered by gavage (between 1 and 30 mg/kg) to cynomolgous monkeys (3 to 4 kg body weight). After different times (between 0.5 and 24 h as well as just prior to administration of antagonist) blood samples (1-2 ml) were taken and centrifuged to obtain plasma, which was frozen and transported to the laboratory as soon as the experiment was complete. Upon arrival at the laboratory, the plasma samples were thawed and the internal standards (1.5 μg), along with 2 volumes of MeOH, were added, the mixture vortexed, and then stored at −80° C. until analysis. The internal standards were structural analogs containing different numbers of methylene groups. Prior to analysis the plasma samples were warmed to room temperature, the above plasma samples containing MeOH were centrifuged and water was added to the supernatant to give a final concentration of 30%. The samples were then applied to a C18 SepPak cartridge (Waters Associates) that had previously been washed with MeOH followed by water (Powell, W. S., Prostaglandins, 1980. 20: p. 947-957). The extracts were analyzed by reversed-phase HPLC combined with automated precolumn extraction (Powell, W. S., Anal. Biochem., 1987. 164: p. 117-131). The stationary phase for the separation was a Novapak C18 column (4 μm particle size; 3.9×150 mm). The amounts of antagonists were determined on the basis of UV absorbance by comparing the peak area for the antagonist in question with that for the corresponding internal standard and correcting for any difference in extinction coefficient.
To examine the PK profiles of compounds V197 and V230 these compounds were administered to cynomolgus monkeys by oral gavage at a dose of 30 mg/kg. Plasma levels were measured following solid-phase extraction by reversed-phase high performance liquid chromatography (HPLC) after 0.5, 1, 2, 4, 8, 18, and 24 h using appropriate internal standards.

Series [3] in a line: Metabolism of OXE antagonists by monkey liver microsomes. It is filed as in vitro ADME, cynomolgous monkey. How it is done: Metabolism of OXE Antagonists by Monkey Microsomes
Microsomes (catalog number MKMC-PL) from cynomolgous monkey liver were obtained from Life Technologies. Antagonists (100 μM) were incubated for various times with liver microsomes (0.5 mg protein/ml) in PBS in the presence of NADPH (2 mM). After various times aliquots (0.1 ml) were removed and placed in a tube containing 0.36 ml ice-cold methanol. After addition of 0.74 ml of water along with 1 μg of an appropriate internal standard the samples were stored at −80° C. until analysis by reversed-phase HPLC.

The target of series [4] is T1, OXE receptor. To be noted: previously described values for V230 and its enantiomers; read-out: IC50, previously disclosed/reported; cited from earlier work.
Series [5] relates to 5-oxo-ETE-induced dermal eosinophil infiltration. The experiment in a line: Inhibition of 5-oxo-ETE-induced dermal eosinophil infiltration. It is filed as in vivo. The settings on record: Rhesus monkeys, biopsy at 24 h. How it is done:
Inhibition of 5-Oxo-ETE-Induced Dermal Eosinophil Infiltration
Rhesus monkeys (n=6) were injected intradermally with 5-oxo-ETE (5 μg) or vehicle. Compound 50 (5 or 10 mg/kg) or vehicle were administered by oral gavage both 1 h before and 7 h after injection of 5-oxo-ETE.
Skin biopsies were taken 24 h after administration of 5-oxo-ETE and sections from paraffin-embedded tissue were stained for eosinophil major basic protein, followed by counting of eosinophils.

[6] abbreviates: inhibition of calcium mobilization induced by 5-oxo-ETE (10 nM) in human granulocytes, bracketed figure in cell = n, read-out: IC50.
Setting [7] is: oral gavage 30 mg/kg, over 24 h.
[8] abbreviates: oral gavage 30 mg/kg, over 24 h, 30 mg/kg.
Setting [9] is: 5-oxo-ETE-induced calcium mobilization, read-out: potency (IC50) in the picomolar range.

Entries after “also recorded” stand apart in the source; their conditions may differ. Read-outs that look alike come from different tables or passages of the source.

T1 sequence (Q8TDS5 whole entry): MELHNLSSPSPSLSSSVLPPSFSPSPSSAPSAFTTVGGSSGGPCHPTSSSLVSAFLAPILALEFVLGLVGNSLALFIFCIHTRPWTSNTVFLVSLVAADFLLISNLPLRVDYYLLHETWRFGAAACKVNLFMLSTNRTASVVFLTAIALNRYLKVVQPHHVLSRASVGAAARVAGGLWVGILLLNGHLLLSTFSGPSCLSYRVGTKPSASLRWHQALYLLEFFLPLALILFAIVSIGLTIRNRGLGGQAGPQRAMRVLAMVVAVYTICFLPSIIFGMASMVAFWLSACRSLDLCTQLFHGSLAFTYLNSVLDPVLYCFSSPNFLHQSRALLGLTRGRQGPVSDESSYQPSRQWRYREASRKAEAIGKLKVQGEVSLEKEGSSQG

For `C[C@H](CC(=O)O)CC(=O)c1c(CCCCCCc2ccccc2)n(C)c2ccc(Cl)cc12` [Compound 46, (S)-5-(5-chloro-1-methyl-2-(6-phenylhexyl)-1H-indol-3-yl)-3-methyl-5-oxopentanoic acid], at OXE receptor [1] (setting [6]), the IC50 was determined as 0.1 nM. Also, in series [2] (setting [7]), the “course of plasma levels / PK profile in words” value is “fell much more slowly” and the “plasma levels relative to V230 at later time points” value is on record as “at least 10 times higher”. In series [3] (4 h, in favor of 46), the “difference in unmetabolized:metabolized ratio versus V230” value is 4 fold.
Regarding `C[C@@H](CC(=O)O)CC(=O)c1c(CCCCCCc2ccccc2)n(C)c2ccc(Cl)cc12` (single isomer, unassigned) [Compound 61], the IC50 on OXE receptor [1] (setting [6]) was 23 ± 2 nM. In addition, the “course of plasma levels / PK profile in words” value in series [2] (setting [7]) was “higher than those of the S-enantiomer and dropped much more slowly”.
For `CCCCCCc1c(C(=O)C[C@H](C)CC(=O)O)c2cc(Cl)ccc2n1C` [Compound V230, reference compound], the “extent of metabolism in plasma in words” value in series [2] (oral gavage 30 mg/kg, after 8 h, compared with 46) is on record as “much greater”. Moreover, in series [2] (setting [8]), the “course of plasma levels / PK profile in words” value is on record as “dropped quite rapidly after 1 h; also recorded: rapid decline”. The “extent of metabolism by microsomes in words” value in series [3] (NADPH, up to 4 h, compared with 46) was “much greater”. Besides, the IC50 on OXE receptor [4] was 26 ± 4 nM.
`CC(CC(=O)O)CC(=O)c1c(CCCc2ccccc2)n(C)c2ccc(Cl)cc12` (centres unmarked) [Compound 12, 5-(5-chloro-1-methyl-2-(3-phenylpropyl)-1H-indol-3-yl)-3-methyl-5-oxopentanoic acid, reference compound]: the IC50 on OXE receptor [1] (setting [6]) was 223 ± 18 nM. Further, at OXE receptor [1] (relative to V230), the “reduction of potency compared to V230” value was “about 8 fold”.
Regarding `C[C@@H](CC(=O)O)CC(=O)c1c(CCCCCCc2ccccc2Cl)n(C)c2ccc(Cl)cc12` (single isomer, unassigned) [Compound 62], the IC50 at OXE receptor [1] (setting [6]) stood at 81 ± 34 nM.
On the same count and under the same terms, the same measure for `C[C@@H](CC(=O)O)CC(=O)c1c(CCCC/C=C\c2ccccc2)n(C)c2ccc(Cl)cc12` [Compound 96]: 5.5 nM.
On to `CC(CC(=O)O)CC(=O)c1c(CCCCCCc2ccccc2)n(C)c2ccc(Cl)cc12` (racemic) [Compound 15, 5-(5-chloro-1-methyl-2-(6-phenylhexyl)-1H-indol-3-yl)-3-methyl-5-oxopentanoic acid], for which, at OXE receptor [1] (setting [6]), the IC50 was determined as 0.18 nM. Also, in series [2] (setting [7]), the “course of plasma levels / PK profile in words” value is on record as “declined much more slowly than the S-enantiomer”.
`CC(C)CCCCc1c(C(=O)CC(C)CC(=O)O)c2cc(Cl)ccc2n1C` (centres unmarked) [Compound V197, reference compound]: the IC50 at OXE receptor [1] (setting [6]) was determined as 20 nM. In series [2] (setting [8]), the “course of plasma levels / PK profile in words” value is reported as “dropped quite rapidly after 1 h; also recorded: inferior to that of compound V230”.
On to `C[C@H](CC(=O)O)CC(=O)c1c(C(O)CCCCCc2ccccc2)n(C)c2ccc(Cl)cc12` (some centres unmarked) [Compound 46M], for which the “antagonist activity / potency in words” value at OXE receptor [1] (5-oxo-ETE-induced calcium mobilization) is listed as 5-oxo-ETE-induced calcium mobilization inhibitors. Besides, the IC50 at OXE receptor [1] (setting [6]) turned out to be 0.8 ± 0.3 nM. Moreover, the “time to peak / maximal plasma levels” value in series [2] (oral gavage 30 mg/kg (46M after administration of 46)) is 8 to 12 h.
As for `C[C@H](CC(=O)O)CC(=O)c1c(CCCCCCc2ccc(F)cc2)n(C)c2ccc(Cl)cc12` [Compound 54, (S)-5-(5-chloro-2-(6-(4-fluorophenyl)hexyl)-1-methyl-1H-indol-3-yl)-3-methyl-5-oxopentanoic acid], the IC50 at OXE receptor [1] (setting [6]) is 0.39 ± 0.09 nM.
Consider `C[C@H](CC(=O)O)CC(=O)c1c(CCCCCCc2cccc(Cl)c2)n(C)c2ccc(Cl)cc12` [Compound 50, (S)-5-(5-chloro-2-(6-(3-chlorophenyl)hexyl)-1-methyl-1H-indol-3-yl)-3-methyl-5-oxopentanoic acid], for which the IC50 on OXE receptor [1] (setting [9]) is around 0.008 nM; at OXE receptor [1] (setting [6]), 0.0081 ± 0.0013 nM. For the same molecule, the 5-Oxo-ETE-induced eosinophil infiltration result in series [5] (5 mg/kg oral gavage 1 h before and 7 h after 5-oxo-ETE, p<0.005) is listed as “significantly inhibited”; in series [5] (10 mg/kg oral gavage 1 h before and 7 h after 5-oxo-ETE, p<0.02) it was “significantly inhibited”.
For `COc1ccccc1CCCCCCc1c(C(=O)CC(C)CC(=O)O)c2cc(Cl)ccc2n1C` (centres unmarked) [Compound 19, 5-(5-chloro-2-(6-(2-methoxyphenyl)hexyl)-1-methyl-1H-indol-3-yl)-3-methyl-5-oxopentanoic acid], at OXE receptor [1] (setting [6]), the IC50 is 0.18 ± 0.05 nM.
In the case of `CC(CC(=O)O)CC(=O)c1c(CCCCCCc2cccc(Cl)c2)n(C)c2ccc(Cl)cc12` (racemic) [Compound 20, 5-(5-chloro-2-(6-(3-chlorophenyl)hexyl)-1-methyl-1H-indol-3-yl)-3-methyl-5-oxopentanoic acid], the IC50 on OXE receptor [1] (setting [9]) was around 0.033 nM; on OXE receptor [1] (setting [6]), 0.033 ± 0.003 nM.
Regarding `C[C@H](CC(=O)O)CC(=O)c1c(CCCCCCc2ccc(Cl)cc2)n(C)c2ccc(Cl)cc12` [Compound 53, (S)-5-(5-chloro-2-(6-(4-chlorophenyl)hexyl)-1-methyl-1H-indol-3-yl)-3-methyl-5-oxopentanoic acid], the IC50 on OXE receptor [1] (setting [6]) was determined as 0.47 ± 0.16 nM.
The same measure, in the same setting: the same measure for `CC(CC(=O)O)CC(=O)c1c(CCCCCCO)n(C)c2ccc(Cl)cc12` (centres unmarked) [V230 ω-OH, reference compound]: 260 ± 30 nM; for `CC(CC(=O)O)CC(=O)c1c(CCCCCCc2cccc(O)c2)n(C)c2ccc(Cl)cc12` (centres unmarked) [Compound 38, 5-(5-chloro-2-(6-(3-hydroxyphenyl)hexyl)-1-methyl-1H-indol-3-yl)-3-methyl-5-oxopentanoic acid]: 1.9 ± 0.3 nM.
For the molecule `CC(=O)CCCCc1c(C(=O)CC(C)CC(=O)O)c2cc(Cl)ccc2n1C` (centres unmarked) [Met b V230 (ω-1)oxo, reference compound], the IC50 at OXE receptor [1] (setting [6]) was 1900 ± 500 nM. Further, the “times less potent than compound V230 in blocking 5-oxo-ETE-induced calcium mobilization in neutrophils” value at OXE receptor [1] (relative to V230) is recorded as “about 100 times”.
On to `CC(CC(=O)O)CC(=O)c1c(CCCCCCc2ccccc2Cl)n(C)c2ccc(Cl)cc12` (centres unmarked) [Compound 17, 5-(5-chloro-2-(6-(2-chlorophenyl)hexyl)-1-methyl-1H-indol-3-yl)-3-methyl-5-oxopentanoic acid], for which the IC50 at OXE receptor [1] (setting [6]) was found to be 0.44 ± 0.13 nM.

The values are drawn from patent US10501414B2, “Indole analogs as 5-oxo-ETE receptor antagonists and method of use thereof” (THE ROYAL INSTITUTION FOR THE ADVANCEMENT OF …, priority 2015, dated 2019).
